The results in this text go back to article PMC5218480 (PLoS ONE, 2017).

This experiment relates to MV-4-11 cells. The experiment is described as follows: Gene expression microarray analysis (Affymetrix PrimeView) and GSEA. It counts as cell-based, human. Also noted: RFU PODN (11730768_x_at) / Fold change /veh PODN (11730768_x_at) / RFU LINC00158 (11744669_a_at) / Fold change /veh LINC00158 (11744669_a_at) / RFU DUSP10 (11751237_a_at) / Fold change /veh DUSP10 (11751237_a_at) / RFU ID3 (11757404_x_at) / Fold change /veh ID3 (11757404_x_at) / RFU PLEKHG5 (11737974_s_at) / Fold change /veh PLEKHG5 (11737974_s_at) / RFU LRRC4B (11730491_at) / Fold change /veh LRRC4B (11730491_at) / RFU GIMAP4 (11747438_a_at) / Fold change /veh GIMAP4 (11747438_a_at) / RFU KRT8 (11758183_x_at) / Fold change /veh KRT8 (11758183_x_at) / RFU CNN1 (11734310_a_at) / Fold change /veh CNN1 (11734310_a_at) / RFU VPS37D (11726825_at) / Fold change /veh VPS37D (11726825_at) / RFU C10orf10 (11716522_x_at) / Fold change /veh C10orf10 (11716522_x_at) / RFU KIR2DL2 /// KIR2DL4 /// KIR2DL5A /// KIR2DL5B /// KIR2DS1 /// KIR2DS2 /// KIR2DS3 /// KIR2DS4 /// KIR3DL3 /// KIR3DL3 /// KIR3DS1 (11738374_at) / Fold change /veh KIR2DL2 /// KIR2DL4 /// KIR2DL5A /// KIR2DL5B /// KIR2DS1 /// KIR2DS2 /// KIR2DS3 /// KIR2DS4 /// KIR3DL3 /// KIR3DL3 /// KIR3DS1 (11738374_at) / RFU C1QL1 (11718748_at) / Fold change /veh C1QL1 (11718748_at) / RFU TMPRSS4 (11747572_a_at) / Fold change /veh TMPRSS4 (11747572_a_at) / RFU HAMP (11756126_x_at) / Fold change /veh HAMP (11756126_x_at) / RFU RNFT2 (11725882_a_at) / Fold change /veh RNFT2 (11725882_a_at) / RFU NR4A2 (11747474_a_at) / Fold change /veh NR4A2 (11747474_a_at) / RFU ABCC12 (11746883_a_at) / Fold change /veh ABCC12 (11746883_a_at) / RFU TMEM136 (11760407_x_at) / Fold change /veh TMEM136 (11760407_x_at) / RFU CLDN22 /// WWC2 (11732394_at) / Fold change /veh CLDN22 /// WWC2 (11732394_at) / RFU HLA-DPB1 (11760878_x_at) / Fold change /veh HLA-DPB1 (11760878_x_at) / RFU SPINT1 (11716480_a_at) / Fold change /veh SPINT1 (11716480_a_at) / RFU GAP43 (11754022_s_at) / Fold change /veh GAP43 (11754022_s_at) / RFU A4GNT (11735810_at) / Fold change /veh A4GNT (11735810_at) / RFU PRB3 (11715151_x_at) / Fold change /veh PRB3 (11715151_x_at) / RFU TUBB4B (11761932_at) / Fold change /veh TUBB4B (11761932_at) / RFU CAPN14 (11732068_a_at) / Fold change /veh CAPN14 (11732068_a_at) / RFU TMCC2 (11721928_a_at) / Fold change /veh TMCC2 (11721928_a_at) / RFU IRGQ (11745062_a_at) / Fold change /veh IRGQ (11745062_a_at) / RFU FAM174B (11720279_a_at) / Fold change /veh FAM174B (11720279_a_at) / RFU TMPRSS4 (11748680_a_at) / Fold change /veh TMPRSS4 (11748680_a_at) / RFU FAM212B (11763350_a_at) / Fold change /veh FAM212B (11763350_a_at) / RFU PLEKHG5 (11743358_a_at) / Fold change /veh PLEKHG5 (11743358_a_at) / RFU ZSCAN30 (11745921_a_at) / Fold change /veh ZSCAN30 (11745921_a_at) / RFU CMKLR1 (11741424_a_at) / Fold change /veh CMKLR1 (11741424_a_at) / RFU LOC101060620 /// MAPK8IP1 (11723275_at) / Fold change /veh LOC101060620 /// MAPK8IP1 (11723275_at) / RFU SPTSSB (11747773_x_at) / Fold change /veh SPTSSB (11747773_x_at) / RFU PRSS12 (11739890_at) / Fold change /veh PRSS12 (11739890_at) / RFU BIN1 (11741810_x_at) / Fold change /veh BIN1 (11741810_x_at) / RFU WNT11 (11732464_a_at) / Fold change /veh WNT11 (11732464_a_at) / RFU C10orf10 (11716521_a_at) / Fold change /veh C10orf10 (11716521_a_at) / RFU C5orf56 (11738089_at) / Fold change /veh C5orf56 (11738089_at) / RFU CYB561 (11721691_x_at) / Fold change /veh CYB561 (11721691_x_at) / RFU ANKRD19P (11752326_a_at) / Fold change /veh ANKRD19P (11752326_a_at) / RFU OR2T12 /// OR2T33 /// OR2T8 (11738714_s_at) / Fold change /veh OR2T12 /// OR2T33 /// OR2T8 (11738714_s_at) / RFU VCAN (11748164_a_at) / Fold change /veh VCAN (11748164_a_at) / RFU JSRP1 (11732532_at) / Fold change /veh JSRP1 (11732532_at) / RFU KRTAP10-11 (11738290_x_at) / Fold change /veh KRTAP10-11 (11738290_x_at) / RFU MYO3A (11730013_a_at) / Fold change /veh MYO3A (11730013_a_at) / RFU EBF3 (11725865_a_at) / Fold change /veh EBF3 (11725865_a_at) / RFU CAMK2N1 (11719241_x_at) / Fold change /veh CAMK2N1 (11719241_x_at) / RFU C5orf56 (11738088_a_at) / Fold change /veh C5orf56 (11738088_a_at) / RFU OLFML3 (11715873_a_at) / Fold change /veh OLFML3 (11715873_a_at) / RFU LOC100653217 /// NTM (11731650_a_at) / Fold change /veh LOC100653217 /// NTM (11731650_a_at) / RFU MAPK11 (11762145_a_at) / Fold change /veh MAPK11 (11762145_a_at) / RFU FIZ1 (11724087_x_at) / Fold change /veh FIZ1 (11724087_x_at) / RFU OASL (11726364_x_at) / Fold change /veh OASL (11726364_x_at) / RFU SOX15 (11748057_x_at) / Fold change /veh SOX15 (11748057_x_at) / RFU CD79A (11719716_a_at) / Fold change /veh CD79A (11719716_a_at) / RFU HIST1H1D (11736915_at) / Fold change /veh HIST1H1D (11736915_at) / RFU CASKIN2 (11723855_a_at) / Fold change /veh CASKIN2 (11723855_a_at) / RFU LOC730098 (11760151_x_at) / Fold change /veh LOC730098 (11760151_x_at) / RFU OR4N2 (11742367_at) / Fold change /veh OR4N2 (11742367_at) / RFU PRRT2 (11749266_a_at) / Fold change /veh PRRT2 (11749266_a_at) / RFU SNX32 (11753110_a_at) / Fold change /veh SNX32 (11753110_a_at) / RFU CDHR5 (11726645_a_at) / Fold change /veh CDHR5 (11726645_a_at) / RFU RCAN1 (11760418_a_at) / Fold change /veh RCAN1 (11760418_a_at) / RFU FAM167A (11723789_a_at) / Fold change /veh FAM167A (11723789_a_at) / RFU FAM26E (11764081_at) / Fold change /veh FAM26E (11764081_at) / RFU ISYNA1 (11749810_s_at) / Fold change /veh ISYNA1 (11749810_s_at) / RFU ACY1 (11761880_at) / Fold change /veh ACY1 (11761880_at) / RFU 11764098_at / Fold change /veh 11764098_at / RFU SAMD14 (11745864_x_at) / Fold change /veh SAMD14 (11745864_x_at) / RFU NPB (11741838_a_at) / Fold change /veh NPB (11741838_a_at) / RFU TMPRSS6 (11731388_a_at) / Fold change /veh TMPRSS6 (11731388_a_at) / RFU KRTAP10-2 (11738614_at) / Fold change /veh KRTAP10-2 (11738614_at) / RFU ARHGAP8 /// PRR5-ARHGAP8 (11727945_x_at) / Fold change /veh ARHGAP8 /// PRR5-ARHGAP8 (11727945_x_at) / RFU KRTAP5-7 /// NADSYN1 (11734609_at) / Fold change /veh KRTAP5-7 /// NADSYN1 (11734609_at) / RFU RASL12 (11751679_a_at) / Fold change /veh RASL12 (11751679_a_at) / RFU CDKN2B (11736163_a_at) / Fold change /veh CDKN2B (11736163_a_at) / RFU PRF1 (11729649_at) / Fold change /veh PRF1 (11729649_at) / RFU, ZNF638 /// ZNF638-IT1 / Fold change vs veh, ZNF638 /// ZNF638-IT1 / RFU, PANK3 / Fold change vs veh, PANK3 / RFU, SH3YL1 / Fold change vs veh, SH3YL1 / RFU, ZEB2 / Fold change vs veh, ZEB2 / RFU, NRIP1 / Fold change vs veh, NRIP1 / RFU, PTTG1IP / Fold change vs veh, PTTG1IP / RFU, CAPN2 / Fold change vs veh, CAPN2 / RFU, MED14 / Fold change vs veh, MED14 / RFU, SNORA58 / Fold change vs veh, SNORA58 / RFU, C1orf63 / Fold change vs veh, C1orf63 / RFU, LRRFIP1 / Fold change vs veh, LRRFIP1 / RFU, NDUFAF7 / Fold change vs veh, NDUFAF7 / RFU, SLC12A2 / Fold change vs veh, SLC12A2 / RFU, IBTK / Fold change vs veh, IBTK / RFU, ESF1 / Fold change vs veh, ESF1 / Fold change vs veh, TMEM50B / RFU, TAOK1 / Fold change vs veh, TAOK1 / RFU, ACBD3 / Fold change vs veh, ACBD3 / RFU, TMA16 / Fold change vs veh, TMA16 / RFU, RWDD3 / Fold change vs veh, RWDD3 / RFU, BCAT1 / Fold change vs veh, BCAT1 / RFU, EDEM3 / Fold change vs veh, EDEM3 / RFU, TMEM33 / Fold change vs veh, TMEM33 / RFU, WDR75 / Fold change vs veh, WDR75 / RFU, AHCTF1 / Fold change vs veh, AHCTF1 / RFU, TFRC / Fold change vs veh, TFRC / RFU, ZDHHC17 / Fold change vs veh, ZDHHC17 / RFU, NOM1 / Fold change vs veh, NOM1 / RFU, ARL8B / Fold change vs veh, ARL8B / RFU, ZBTB11 / Fold change vs veh, ZBTB11 / RFU, TAMM41 / Fold change vs veh, TAMM41 / RFU, KIAA1704 /// LOC100996395 / Fold change vs veh, KIAA1704 /// LOC100996395 / RFU, ING1 / Fold change vs veh, ING1 / RFU, TRMT61B / Fold change vs veh, TRMT61B / RFU, FUBP3 / Fold change vs veh, FUBP3 / RFU, TP53 / Fold change vs veh, TP53 / RFU, TNKS2 / Fold change vs veh, TNKS2 / RFU, ZFP14 / Fold change vs veh, ZFP14 / RFU, ACTR2 / Fold change vs veh, ACTR2 / RFU, PPP3R1 / Fold change vs veh, PPP3R1 / RFU, PIK3R1 / Fold change vs veh, PIK3R1 / RFU, HNRNPA1 / Fold change vs veh, HNRNPA1 / RFU, RNF170 / Fold change vs veh, RNF170 / RFU, ZNF28 / Fold change vs veh, ZNF28 / RFU, RNGTT / Fold change vs veh, RNGTT / RFU, OGT / Fold change vs veh, OGT / RFU, BRD1 / Fold change vs veh, BRD1 / RFU, MARS / Fold change vs veh, MARS / RFU, ZNF655 / Fold change vs veh, ZNF655 / RFU, FAHD1 / Fold change vs veh, FAHD1 / RFU, BDP1 / Fold change vs veh, BDP1 / RFU, LRRCC1 / Fold change vs veh, LRRCC1 / RFU, ARID1A / Fold change vs veh, ARID1A / RFU, ZNF146 / Fold change vs veh, ZNF146 / RFU, ZNF330 / Fold change vs veh, ZNF330 / RFU, GPN3 / Fold change vs veh, GPN3 / RFU, C9orf123 / Fold change vs veh, C9orf123 / RFU, N4BP2L2 / Fold change vs veh, N4BP2L2 / RFU, ARFIP1 / Fold change vs veh, ARFIP1 / RFU, FAM179B / Fold change vs veh, FAM179B / RFU, BCL10 / Fold change vs veh, BCL10 / RFU, UHRF1BP1L / Fold change vs veh, UHRF1BP1L / RFU, BET1 / Fold change vs veh, BET1 / RFU, CNOT2 / Fold change vs veh, CNOT2 / RFU, ZNF268 / Fold change vs veh, ZNF268 / Fold change vs veh, ZNF507 / RFU, DGCR2 / Fold change vs veh, DGCR2 / RFU, WDSUB1 / Fold change vs veh, WDSUB1 / Fold change vs veh, HSP90B1 /// MIR3652 / RFU, ADSS / Fold change vs veh, ADSS / RFU, GK / Fold change vs veh, GK / RFU, ZNF148 / Fold change vs veh, ZNF148 / RFU, TAF9 / Fold change vs veh, TAF9 / RFU, SLC1A5 / Fold change vs veh, SLC1A5 / RFU, SLMO2 / Fold change vs veh, SLMO2 / RFU, ABCC4 / Fold change vs veh, ABCC4 / RFU, LOC101060439 /// RAP1B / Fold change vs veh, LOC101060439 /// RAP1B / RFU, RFX7 / Fold change vs veh, RFX7 / RFU, GTPBP10 / Fold change vs veh, GTPBP10 / RFU, CNEP1R1 / Fold change vs veh, CNEP1R1 / RFU, BIVM-ERCC5 /// ERCC5 / Fold change vs veh, BIVM-ERCC5 /// ERCC5 / RFU, ILF3 / Fold change vs veh, ILF3 / RFU 11762660_at / Fold change /veh 11762660_at / RFU VCAN (11757783_s_at) / Fold change /veh VCAN (11757783_s_at) / RFU DDX43 (11728927_at) / Fold change /veh DDX43 (11728927_at) / RFU KRT8 (11758188_x_at) / Fold change /veh KRT8 (11758188_x_at) / RFU NKD1 (11759106_at) / Fold change /veh NKD1 (11759106_at) / RFU SRD5A1 (11742802_a_at) / Fold change /veh SRD5A1 (11742802_a_at) / RFU TPSAB1 /// TPSB2 (11721975_s_at) / Fold change /veh TPSAB1 /// TPSB2 (11721975_s_at) / RFU GSTM3 (11746129_a_at) / Fold change /veh GSTM3 (11746129_a_at) / RFU IL23R (11737362_x_at) / Fold change /veh IL23R (11737362_x_at) / RFU TMEM51 (11727254_a_at) / Fold change /veh TMEM51 (11727254_a_at) / RFU PIWIL2 (11732686_x_at) / Fold change /veh PIWIL2 (11732686_x_at) / RFU ORM1 (11744905_x_at) / Fold change /veh ORM1 (11744905_x_at) / RFU CCDC152 (11743942_at) / Fold change /veh CCDC152 (11743942_at) / RFU ECM1 (11717891_a_at) / Fold change /veh ECM1 (11717891_a_at) / RFU IL23R (11748794_a_at) / Fold change /veh IL23R (11748794_a_at) / RFU TNFAIP8L3 (11732012_x_at) / Fold change /veh TNFAIP8L3 (11732012_x_at) / RFU MBOAT4 (11741988_at) / Fold change /veh MBOAT4 (11741988_at) / RFU 11764193_at / Fold change /veh 11764193_at / RFU TMEM53 (11763286_at) / Fold change /veh TMEM53 (11763286_at) / RFU MAGEB2 (11727129_at) / Fold change /veh MAGEB2 (11727129_at) / RFU TMEM200A (11744735_a_at) / Fold change /veh TMEM200A (11744735_a_at) / RFU CCDC152 (11751479_a_at) / Fold change /veh CCDC152 (11751479_a_at) / RFU FAM211A (11726209_a_at) / Fold change /veh FAM211A (11726209_a_at) / RFU RGS16 (11746705_a_at) / Fold change /veh RGS16 (11746705_a_at) / RFU VCAN (11755009_s_at) / Fold change /veh VCAN (11755009_s_at) / RFU RHOB (11743442_s_at) / Fold change /veh RHOB (11743442_s_at) / RFU RGS16 (11720943_a_at) / Fold change /veh RGS16 (11720943_a_at) / RFU RGS16 (11720944_at) / Fold change /veh RGS16 (11720944_at) / RFU, VPS4B / Fold change vs veh, VPS4B / RFU, CREB1 / Fold change vs veh, CREB1 / RFU, DNAJC13 / Fold change vs veh, DNAJC13 / RFU, GNAQ / Fold change vs veh, GNAQ / RFU, CDK5R1 / Fold change vs veh, CDK5R1 / RFU, ZRANB3 / Fold change vs veh, ZRANB3 / RFU, CUL4A / Fold change vs veh, CUL4A / RFU, CCNY / Fold change vs veh, CCNY / RFU, UFL1 / Fold change vs veh, UFL1 / RFU, COG3 / Fold change vs veh, COG3 / RFU, DIAPH2 / Fold change vs veh, DIAPH2 / RFU, SKA2 / Fold change vs veh, SKA2 / RFU, AFF3 / Fold change vs veh, AFF3 / RFU, LMF1 / Fold change vs veh, LMF1 / RFU, IPO11 / Fold change vs veh, IPO11 / RFU, DFFB / Fold change vs veh, DFFB / RFU, FOXP1 / Fold change vs veh, FOXP1 / RFU, CARD8 / Fold change vs veh, CARD8 / RFU, STRN3 / Fold change vs veh, STRN3 / RFU, ADK / Fold change vs veh, ADK / RFU, RASSF2 / Fold change vs veh, RASSF2 / RFU, WIPF1 / Fold change vs veh, WIPF1 / RFU, LARP1B / Fold change vs veh, LARP1B / RFU, RASA1 / Fold change vs veh, RASA1 / RFU, RB1 / Fold change vs veh, RB1 / RFU, PPFIA1 / Fold change vs veh, PPFIA1 / RFU, MAT2A / Fold change vs veh, MAT2A / RFU, CCT5 / Fold change vs veh, CCT5 / RFU, WDR92 / Fold change vs veh, WDR92 / RFU, CUX1 / Fold change vs veh, CUX1 / RFU, TTC7A / Fold change vs veh, TTC7A / RFU, TMEM135 / Fold change vs veh, TMEM135 / RFU, DEPTOR / Fold change vs veh, DEPTOR / RFU, CPM / Fold change vs veh, CPM / RFU, DNAJB6 / Fold change vs veh, DNAJB6 / RFU, CACNA2D3 / Fold change vs veh, CACNA2D3 / RFU, DTX4 / Fold change vs veh, DTX4 / RFU, TFCP2 / Fold change vs veh, TFCP2 / RFU, GMCL1 /// GMCL1P1 / Fold change vs veh, GMCL1 /// GMCL1P1 / RFU, AEBP2 / Fold change vs veh, AEBP2 / RFU, SNHG1 /// SNORD22 /// SNORD25 /// SNORD26 /// SNORD27 /// SNORD28 /// SNORD29 /// SNORD31 / Fold change vs veh, SNHG1 /// SNORD22 /// SNORD25 /// SNORD26 /// SNORD27 /// SNORD28 /// SNORD29 /// SNORD31 / Fold change (Aza/veh), C12orf56 (ProbeSet 11735607_a_at) / Fold change (ACY-1035/veh), C12orf56 (ProbeSet 11735607_a_at) / Fold change (Aza/veh), FGFR1OP (ProbeSet 11751329_s_at) / Fold change (ACY-1035/veh), FGFR1OP (ProbeSet 11751329_s_at) / Fold change (Aza/veh), VPS36 (ProbeSet 11739960_a_at) / Fold change (ACY-1035/veh), VPS36 (ProbeSet 11739960_a_at) / RFU SYPL1 (11715823_x_at) / Fold change /veh SYPL1 (11715823_x_at) / RFU IGFBP7 (11715501_s_at) / Fold change /veh IGFBP7 (11715501_s_at) / RFU REEP3 (11722064_at) / Fold change /veh REEP3 (11722064_at) / RFU IGLL1 (11728026_x_at) / Fold change /veh IGLL1 (11728026_x_at): dose or concentration left out as unconfirmed. Particulars: MV-4-11 cells, 48 hours.

With `Nc1ncn([C@@H]2O[C@H](CO)[C@@H](O)[C@H]2O)c(=O)n1` [azacitidine], the “Fold change /veh OASL (11726364_x_at)” value came to 0.86.
